Assay results taken from ChEMBL document CHEMBL5465560, “Selectivity Literature for EUbOPEN Chemogenomic Library” (2024).

What was measured:
[1] = molecular target: T1, Serine/threonine-protein kinase ULK3 (Homo sapiens) (UniProt Q6PHR2); test: Selectivity interaction (KinomeScan (DiscoverX)) EUB0000666a ULK3; conditions: at 10 µM
T1 sequence (whole entry): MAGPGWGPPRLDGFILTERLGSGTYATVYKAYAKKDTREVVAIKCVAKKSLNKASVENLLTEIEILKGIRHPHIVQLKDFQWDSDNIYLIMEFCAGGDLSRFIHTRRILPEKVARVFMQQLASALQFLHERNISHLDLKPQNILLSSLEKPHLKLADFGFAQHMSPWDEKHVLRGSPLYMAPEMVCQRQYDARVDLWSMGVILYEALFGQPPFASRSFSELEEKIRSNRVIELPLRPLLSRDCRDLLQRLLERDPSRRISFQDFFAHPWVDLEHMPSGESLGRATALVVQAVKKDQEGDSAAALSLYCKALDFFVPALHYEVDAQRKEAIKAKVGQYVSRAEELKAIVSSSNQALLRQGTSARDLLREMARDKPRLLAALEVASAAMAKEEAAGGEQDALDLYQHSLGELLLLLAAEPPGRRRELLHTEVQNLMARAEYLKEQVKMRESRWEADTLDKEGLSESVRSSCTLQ

[2] = molecular target: Phosphatidylinositol 4-phosphate 5-kinase type-1 gamma (Homo sapiens) (UniProt O60331); test: Selectivity interaction (KinomeScan (DiscoverX)) EUB0000607a PIP5K1C; conditions: at 10 µM
[3] = molecular target: T2, Serine/threonine-protein kinase Nek2 (Homo sapiens) (UniProt P51955); test: Selectivity interaction (SelectScreen profiling (Invitrogen)) EUB0000607a NEK2; conditions: at 2 µM
T2 sequence (whole entry): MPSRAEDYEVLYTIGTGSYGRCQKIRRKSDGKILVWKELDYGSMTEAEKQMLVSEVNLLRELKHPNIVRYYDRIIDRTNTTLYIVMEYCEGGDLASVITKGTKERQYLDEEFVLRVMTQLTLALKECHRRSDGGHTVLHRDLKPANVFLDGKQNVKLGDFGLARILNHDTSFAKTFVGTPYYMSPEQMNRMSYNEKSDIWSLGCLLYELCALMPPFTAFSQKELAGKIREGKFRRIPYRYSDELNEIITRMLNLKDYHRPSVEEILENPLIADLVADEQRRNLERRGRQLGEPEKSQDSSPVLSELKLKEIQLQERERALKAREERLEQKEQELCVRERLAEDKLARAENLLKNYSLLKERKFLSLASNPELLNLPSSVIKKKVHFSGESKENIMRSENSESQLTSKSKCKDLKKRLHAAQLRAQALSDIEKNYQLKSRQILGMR

[4] = molecular target: Receptor-interacting serine/threonine-protein kinase 2 (Homo sapiens, UniProt O43353); test: Selectivity interaction (Upstate Kinase Profiler service (Millipore)) EUB0000056c RIPK2; conditions: at 1 µM
[5] = molecular target: T3, Dual specificity mitogen-activated protein kinase kinase 6 (Homo sapiens) (UniProt P52564); conditions: at 10 µM
T3 sequence (whole entry): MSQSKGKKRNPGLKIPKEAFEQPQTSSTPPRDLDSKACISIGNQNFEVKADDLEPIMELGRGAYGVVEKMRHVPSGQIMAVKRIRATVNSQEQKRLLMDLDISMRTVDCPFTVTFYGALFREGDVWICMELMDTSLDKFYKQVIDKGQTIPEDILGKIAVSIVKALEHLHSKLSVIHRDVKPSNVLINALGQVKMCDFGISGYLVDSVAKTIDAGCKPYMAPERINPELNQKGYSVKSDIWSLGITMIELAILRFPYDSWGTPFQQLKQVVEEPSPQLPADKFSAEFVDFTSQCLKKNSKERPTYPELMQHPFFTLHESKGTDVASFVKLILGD

[6] = molecular target: Cyclin-dependent kinase 1/cyclin B (Homo sapiens) (UniProt P06493+P14635+Q8WWL7+O95067); test: Selectivity interaction (Kinase panel (Invitrogen)) EUB0000639a CDK1; format: protein-complex assay; conditions: at 200 nM
[7] = molecular target: Ribosomal protein S6 kinase alpha-3 (Homo sapiens, UniProt P51812); test: Selectivity interaction (ActivX KiNativ screen (kinase selectivity in THP-1 cell lysates)) EUB0000639a RPS6KA3; format: subcellular; conditions: lysate, at 0.2 µM
[8] = molecular target: 1-phosphatidylinositol 3-phosphate 5-kinase (Homo sapiens) (UniProt Q9Y2I7); test: Selectivity interaction (ActivX KiNativ screen (kinase selectivity in THP-1 cell lysates)) EUB0000639a PIKFYVE; format: subcellular; conditions: lysate
[9] = molecular target: T3, Dual specificity mitogen-activated protein kinase kinase 6 (Homo sapiens); test: Selectivity interaction (Kinase screening (Upstate/Millipore)) EUB0000604a MAP2K6
[10] = molecular target: Cyclin-dependent kinase 9 (Homo sapiens, UniProt P50750); test: Selectivity interaction (SelectScreen Kinase Profiling (Thermo Fisher Scientific)) EUB0001558a CDK9; conditions: at 1 µM
[11] = molecular target: Cyclin-dependent kinase 18 (Homo sapiens) (UniProt Q07002); test: Selectivity interaction (KinomeScan (DiscoverX)) EUB0000655a CDK18; conditions: at 10 µM
[12] = molecular target: T4, Serine/threonine-protein kinase 17A (Homo sapiens) (UniProt Q9UEE5); test: Selectivity interaction (KinomeScan (DiscoverX)) EUB0000045b STK17A
T4 sequence (whole entry): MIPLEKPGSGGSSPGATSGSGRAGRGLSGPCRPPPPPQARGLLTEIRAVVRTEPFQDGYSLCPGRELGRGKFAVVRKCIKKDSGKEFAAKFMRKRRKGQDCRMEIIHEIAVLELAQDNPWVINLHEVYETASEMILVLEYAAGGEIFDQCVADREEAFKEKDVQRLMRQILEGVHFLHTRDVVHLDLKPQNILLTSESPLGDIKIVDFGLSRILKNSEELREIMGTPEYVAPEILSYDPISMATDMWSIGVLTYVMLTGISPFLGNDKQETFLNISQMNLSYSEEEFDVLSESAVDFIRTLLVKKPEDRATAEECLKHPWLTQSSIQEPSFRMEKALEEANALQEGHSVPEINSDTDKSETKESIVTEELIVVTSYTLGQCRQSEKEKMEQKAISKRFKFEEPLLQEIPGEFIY

Sequence of 1-phosphatidylinositol 3-phosphate 5-kinase (Homo sapiens) (Q9Y2I7 whole entry): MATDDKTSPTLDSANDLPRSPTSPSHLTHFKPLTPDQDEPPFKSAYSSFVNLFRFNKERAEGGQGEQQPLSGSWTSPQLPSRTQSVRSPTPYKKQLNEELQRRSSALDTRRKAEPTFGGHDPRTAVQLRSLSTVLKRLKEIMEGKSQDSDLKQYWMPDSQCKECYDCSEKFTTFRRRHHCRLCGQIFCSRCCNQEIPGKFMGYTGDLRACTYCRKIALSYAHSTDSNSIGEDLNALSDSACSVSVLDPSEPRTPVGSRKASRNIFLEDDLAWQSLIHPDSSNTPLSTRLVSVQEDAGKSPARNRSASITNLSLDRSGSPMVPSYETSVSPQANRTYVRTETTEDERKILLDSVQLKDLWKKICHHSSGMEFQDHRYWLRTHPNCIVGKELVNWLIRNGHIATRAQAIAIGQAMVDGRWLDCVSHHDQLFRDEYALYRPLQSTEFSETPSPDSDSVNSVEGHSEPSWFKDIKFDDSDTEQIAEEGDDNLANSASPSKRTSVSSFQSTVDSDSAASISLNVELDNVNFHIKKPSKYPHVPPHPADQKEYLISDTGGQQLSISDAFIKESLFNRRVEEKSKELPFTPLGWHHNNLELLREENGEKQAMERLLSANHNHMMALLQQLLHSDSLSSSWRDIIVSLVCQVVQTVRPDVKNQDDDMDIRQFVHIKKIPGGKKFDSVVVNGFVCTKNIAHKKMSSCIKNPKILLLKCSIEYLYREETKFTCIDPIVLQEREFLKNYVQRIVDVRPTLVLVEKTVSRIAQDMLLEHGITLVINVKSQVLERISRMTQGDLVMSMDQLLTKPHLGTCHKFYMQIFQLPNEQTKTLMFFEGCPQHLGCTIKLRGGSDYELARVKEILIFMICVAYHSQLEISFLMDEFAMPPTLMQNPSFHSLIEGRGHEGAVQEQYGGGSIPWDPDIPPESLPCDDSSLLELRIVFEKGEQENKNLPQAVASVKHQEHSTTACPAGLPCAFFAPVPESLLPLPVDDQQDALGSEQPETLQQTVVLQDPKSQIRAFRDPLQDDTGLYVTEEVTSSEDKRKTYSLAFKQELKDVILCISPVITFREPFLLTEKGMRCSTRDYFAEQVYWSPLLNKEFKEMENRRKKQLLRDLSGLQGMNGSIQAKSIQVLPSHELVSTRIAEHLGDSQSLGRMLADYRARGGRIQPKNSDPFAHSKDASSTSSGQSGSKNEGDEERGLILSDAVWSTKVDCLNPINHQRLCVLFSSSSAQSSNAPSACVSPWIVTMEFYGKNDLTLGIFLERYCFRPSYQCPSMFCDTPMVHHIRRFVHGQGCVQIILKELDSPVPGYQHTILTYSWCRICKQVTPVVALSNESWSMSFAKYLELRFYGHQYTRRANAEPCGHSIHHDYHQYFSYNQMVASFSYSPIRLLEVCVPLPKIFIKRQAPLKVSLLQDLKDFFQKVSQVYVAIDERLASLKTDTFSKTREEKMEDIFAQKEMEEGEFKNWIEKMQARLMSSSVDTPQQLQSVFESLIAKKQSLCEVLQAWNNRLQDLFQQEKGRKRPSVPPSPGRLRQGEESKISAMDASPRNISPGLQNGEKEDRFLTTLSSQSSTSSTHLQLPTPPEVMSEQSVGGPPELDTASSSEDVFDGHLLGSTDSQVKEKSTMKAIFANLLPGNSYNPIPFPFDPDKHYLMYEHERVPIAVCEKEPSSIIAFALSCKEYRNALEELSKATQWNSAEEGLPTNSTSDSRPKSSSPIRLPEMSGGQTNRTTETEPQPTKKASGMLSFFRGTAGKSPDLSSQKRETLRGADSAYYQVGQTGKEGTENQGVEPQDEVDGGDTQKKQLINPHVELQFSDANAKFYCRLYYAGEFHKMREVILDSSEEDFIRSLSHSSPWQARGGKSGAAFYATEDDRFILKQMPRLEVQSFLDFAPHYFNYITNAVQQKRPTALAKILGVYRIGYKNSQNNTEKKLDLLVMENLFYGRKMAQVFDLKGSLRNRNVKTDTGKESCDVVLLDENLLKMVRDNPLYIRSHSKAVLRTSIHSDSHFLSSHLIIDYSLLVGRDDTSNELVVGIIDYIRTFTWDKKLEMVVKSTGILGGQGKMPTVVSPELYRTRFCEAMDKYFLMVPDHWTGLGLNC
Sequence of Cyclin-dependent kinase 9 (P50750 whole entry): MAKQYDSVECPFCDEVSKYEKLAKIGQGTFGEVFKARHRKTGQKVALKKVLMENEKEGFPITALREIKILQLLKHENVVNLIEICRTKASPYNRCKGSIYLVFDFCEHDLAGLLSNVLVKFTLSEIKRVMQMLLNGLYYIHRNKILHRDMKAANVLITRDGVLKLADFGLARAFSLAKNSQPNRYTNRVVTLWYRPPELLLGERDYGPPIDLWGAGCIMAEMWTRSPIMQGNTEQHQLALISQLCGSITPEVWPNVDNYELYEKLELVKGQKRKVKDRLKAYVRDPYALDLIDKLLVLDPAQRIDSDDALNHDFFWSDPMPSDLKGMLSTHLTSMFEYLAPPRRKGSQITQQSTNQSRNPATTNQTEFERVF
Sequence of Cyclin-dependent kinase 18 (Homo sapiens) (Q07002 whole entry): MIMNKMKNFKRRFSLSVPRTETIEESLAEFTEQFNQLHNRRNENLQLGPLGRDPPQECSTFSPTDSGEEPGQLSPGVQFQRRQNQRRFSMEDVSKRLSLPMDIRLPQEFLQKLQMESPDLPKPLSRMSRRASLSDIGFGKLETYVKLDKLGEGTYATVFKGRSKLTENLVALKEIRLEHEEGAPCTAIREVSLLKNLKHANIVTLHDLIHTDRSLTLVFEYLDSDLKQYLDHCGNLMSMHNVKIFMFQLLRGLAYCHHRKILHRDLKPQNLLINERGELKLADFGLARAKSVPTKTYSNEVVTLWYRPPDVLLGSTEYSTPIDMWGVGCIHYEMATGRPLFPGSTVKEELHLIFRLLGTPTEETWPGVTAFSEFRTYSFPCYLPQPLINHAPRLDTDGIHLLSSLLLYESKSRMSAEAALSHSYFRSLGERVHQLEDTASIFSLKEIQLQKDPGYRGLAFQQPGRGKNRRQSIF
Sequence of Phosphatidylinositol 4-phosphate 5-kinase type-1 gamma (Homo sapiens) (O60331 whole entry): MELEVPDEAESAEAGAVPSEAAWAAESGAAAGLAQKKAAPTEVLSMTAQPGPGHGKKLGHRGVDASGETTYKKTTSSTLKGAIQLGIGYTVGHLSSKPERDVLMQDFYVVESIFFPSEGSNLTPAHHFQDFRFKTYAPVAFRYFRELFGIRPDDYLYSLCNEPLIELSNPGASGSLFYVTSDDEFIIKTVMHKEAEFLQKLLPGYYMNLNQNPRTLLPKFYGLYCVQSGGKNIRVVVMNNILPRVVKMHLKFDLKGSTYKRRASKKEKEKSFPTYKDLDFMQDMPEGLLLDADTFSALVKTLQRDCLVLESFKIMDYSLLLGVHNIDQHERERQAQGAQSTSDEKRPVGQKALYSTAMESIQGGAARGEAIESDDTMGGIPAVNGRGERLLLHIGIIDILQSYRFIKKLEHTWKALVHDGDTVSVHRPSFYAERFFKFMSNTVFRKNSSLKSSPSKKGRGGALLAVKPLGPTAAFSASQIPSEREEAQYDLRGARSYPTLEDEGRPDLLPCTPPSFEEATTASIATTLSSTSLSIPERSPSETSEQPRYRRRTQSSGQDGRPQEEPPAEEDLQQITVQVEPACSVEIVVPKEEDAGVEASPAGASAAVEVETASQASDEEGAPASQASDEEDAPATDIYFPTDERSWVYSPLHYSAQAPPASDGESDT
Sequence of Ribosomal protein S6 kinase alpha-3 (P51812 whole entry): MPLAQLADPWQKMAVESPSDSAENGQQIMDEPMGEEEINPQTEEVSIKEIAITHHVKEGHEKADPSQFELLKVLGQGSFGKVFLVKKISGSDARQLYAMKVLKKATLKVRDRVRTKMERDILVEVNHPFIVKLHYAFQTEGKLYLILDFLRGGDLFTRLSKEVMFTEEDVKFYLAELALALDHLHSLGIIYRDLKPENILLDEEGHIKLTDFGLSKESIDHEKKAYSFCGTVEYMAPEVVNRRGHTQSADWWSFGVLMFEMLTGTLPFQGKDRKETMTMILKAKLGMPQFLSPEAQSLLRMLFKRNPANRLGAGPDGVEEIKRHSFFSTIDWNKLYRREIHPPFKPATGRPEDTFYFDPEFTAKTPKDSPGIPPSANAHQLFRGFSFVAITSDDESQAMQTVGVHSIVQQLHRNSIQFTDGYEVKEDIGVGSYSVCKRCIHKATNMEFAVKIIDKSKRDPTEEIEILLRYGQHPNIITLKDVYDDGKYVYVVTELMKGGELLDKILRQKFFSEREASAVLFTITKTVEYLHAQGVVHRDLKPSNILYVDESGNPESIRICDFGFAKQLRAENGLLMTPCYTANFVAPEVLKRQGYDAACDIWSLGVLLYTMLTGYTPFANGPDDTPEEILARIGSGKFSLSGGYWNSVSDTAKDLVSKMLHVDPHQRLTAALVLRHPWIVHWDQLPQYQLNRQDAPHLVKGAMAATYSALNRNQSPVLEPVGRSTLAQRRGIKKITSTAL
Sequence of Receptor-interacting serine/threonine-protein kinase 2 (O43353 whole entry): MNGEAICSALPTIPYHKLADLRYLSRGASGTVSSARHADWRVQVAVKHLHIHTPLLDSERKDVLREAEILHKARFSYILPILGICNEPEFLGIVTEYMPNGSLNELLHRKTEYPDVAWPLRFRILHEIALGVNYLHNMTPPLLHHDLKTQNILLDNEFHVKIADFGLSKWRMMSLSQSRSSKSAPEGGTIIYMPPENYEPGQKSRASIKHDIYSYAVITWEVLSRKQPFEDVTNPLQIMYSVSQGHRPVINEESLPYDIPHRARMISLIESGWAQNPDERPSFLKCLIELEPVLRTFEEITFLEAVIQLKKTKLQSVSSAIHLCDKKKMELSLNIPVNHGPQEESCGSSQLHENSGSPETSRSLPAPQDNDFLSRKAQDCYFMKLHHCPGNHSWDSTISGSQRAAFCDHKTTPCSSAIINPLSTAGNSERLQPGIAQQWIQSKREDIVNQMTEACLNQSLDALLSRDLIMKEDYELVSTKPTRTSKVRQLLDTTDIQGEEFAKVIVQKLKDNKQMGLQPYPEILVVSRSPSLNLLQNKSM

In the case of `O=C(NOC[C@H](O)CO)c1ccc(F)c(F)c1Nc1ccc(I)cc1F`, the % of control [1] is reported as 89%.
In the case of `CNC(=O)Nc1ccc(-c2nc(N3CC4CCC(C3)O4)c3cnn(C4CCC5(CC4)OCCO5)c3n2)cc1`, the % of control [2] is reported as 100% and the % of inhibition [3] is reported as 10%.
In the case of `Cc1ccc(-c2ccc3c(ccc4sc5c(c43)NC[C@@H](C)NC5=O)n2)cn1`, the % of inhibition [4] is reported as 74%.
`CCN(CC)CCCCNc1ncc2cc(-c3cc(OC)cc(OC)c3)c(NC(=O)NC(C)(C)C)nc2n1` was tested, and the % of control [5] was 100%.
Molecule `CC[C@@H]1[C@H](F)C(=O)N[C@@H]1COc1nccc2cc(C(N)=O)c(OC)cc12` [ZIMLOVISERTIB] has a % of inhibition [6] of 11.5%, a % of inhibition [7] of -3.7% and a % of inhibition ([8]; at 0.01 µM) of 11%. For the same molecule, the % of inhibition ([8]; at 0.04 µM) was 8.8%, the % of inhibition ([8]; at 0.2 µM) was -0.1% and the % of inhibition ([8]; at 1 µM) was 21.3%. The % of inhibition ([8]; at 5 µM) was 29.2%.
`Cc1cnc(Nc2ccc(F)cc2Cl)nc1-c1c[nH]c(C(=O)N[C@H](CO)c2cccc(Cl)c2)c1` was tested, and the % of inhibition [9] was 9%.
Molecule `CC(C)(O)[C@H](F)CN1Cc2cc(NC(=O)c3cnn4cccnc34)c(N3CCOCC3)cc2C1=O` has a % of inhibition [10] of 74.5%.
Work on `CN(C)CCOc1ccc(-c2nc(-c3ccncc3)c(-c3ccc4c(c3)CC/C4=N\O)[nH]2)cc1` yielded a % of control [11] of 100%.
`C=CC(=O)Nc1cc(-n2c(=O)ccc3cnc4ccc(-c5ccc(NS(C)(=O)=O)cc5)cc4c32)ccc1C` showed a % of control ([12]; at 1 µM) of 100% and a % of control ([12]; at 10 µM) of 100%.
